Test results from patent US7879876B2, “Sulfonamide derivatives and use thereof for the modulation of metalloproteinases” (Merck Serono SA, priority 2005, dated 2011).

What was measured:
[1] = target: MMP13 (Homo sapiens, UniProt P45452); assay: MMP13 inhibition (Table 1); format: biochemical; conditions: read-out: percentage inhibition MMP13
[2] = tested on: IL-2-induced peritoneal recruitment of lymphocytes; assay: IL-2-induced peritoneal recruitment of lymphocytes; format: in vivo, C3H/HEN mice; conditions: Mus musculus, Lymphocyte, po; 3 mg/kg p.o., 15 min prior to IL-2; mice; 24 h after IL-2
Procedure: Administration of IL-2 intraperitoneally causes migration of lymphocytes into the intraperitoneal cavity. This is a model for the cellular migration that occurs during inflammation.
C3H/HEN mice (Elevage Janvier, France) were intraperitoneally injected with IL-2 (Serono Pharmaceutical Research Institute, 20 μg/kg, in saline). Compounds of the invention were suspended in 0.5% carboxymethylcellulose (CMC)/0.25% tween-20 and were administered by s.c. or p.o. route (10 ml/kg) 15 min prior to administration of IL-2.
Twenty-four hours after administration of IL-2, peritoneal white blood cells were collected by 3 successive lavages of the peritoneal cavity with 5 ml phosphate buffered saline (PBS)-1 mM EDTA (+4° C.). The suspension was centrifuged (1700 g×10 min at +4° C.). The resulting pellet was suspended in 1 ml PBS-1 mM EDTA.
Lymphocytes were identified and counted using a Beckman/Coulter counter.
The animals were divided into 6 groups (6 mice each group):
Group 1: (baseline) received 0.5% CMC/0.25% tween-20 (vehicle of compound of the invention) and saline (vehicle of IL-2);
Group 2: (control IL-2) received 0.5% CMC/0.25% tween-20 and injection of IL-2;
Group 3: Experimental group (Compound of the invention Dose 1) received a compound of the invention and injection of IL-2;
Group 4: Experimental group (Compound of the invention Dose 2) received a compound of the invention and injection of IL-2;
Group 5: Experimental group (Compound of the invention Dose 3) received a compound of the invention and injection of IL-2;
Group 6: Reference group received reference compound dexamethasone and injection of IL-2.
Inhibition of lymphocyte recruitment was calculated as follows:
Where Ly 1=Number of lymphocytes in group 1 (E3/μl), Ly 2=Number of lymphocytes in group 2 (E3/μl), Ly X=Number of lymphocytes in group X (3-5) (E3/μl).

Row | inhibition at 0.1 µM [1] | inhibition at 5 µM [1] | SMILES | inhibition in vivo at 3 mg/kg [2]
1 | 0% | 80% | O=CN(O)C(CS(=O)(=O)N1CCc2ccccc2C1)C1CC1 (centres unmarked) [Example 4, N-[1-cyclopropyl-2-(3,4-dihydroisoquinolin-2(1H)-ylsulfonyl)ethyl]-N-hydroxyformamide] | 
2 | 6% | 98% | CCCCCC(CS(=O)(=O)N1CCc2ccccc2C1)N(O)C=O (centres unmarked) [Example 3, N-{1-[(3,4-dihydroisoquinolin-2(1H)-ylsulfonyl)methyl]hexyl}-N-hydroxyformamide] | 
3 | 17% | 98% | CC1(C)OC[C@H](C(CS(=O)(=O)N2CCc3ccccc3C2)N(O)C=O)O1 (stereo partly drawn) [Example 2, N-{2-(3,4-dihydroisoquinolin-2(1H)-ylsulfonyl)-1-[(4S)-2,2-dimethyl-1,3-dioxolan-4-yl]ethyl}-N-hydroxyformamide] | 16 ± 13%

Second part, the compound before the results:

Row | SMILES | inhibition at 0.1 µM [1] | inhibition at 5 µM [1] | inhibition in vivo at 3 mg/kg [2]
4 | O=CN(O)C(CCc1ccccc1)CS(=O)(=O)N1Cc2ccccc2C1 (centres unmarked) [Example 6, N-{1-[(1,3-dihydro-2H-isoindol-2-ylsulfonyl)methyl]-3-phenylpropyl}-N-hydroxyformamide] | 11% | 94% | 40 ± 6%
5 | COc1cc2c(cc1OC)CN(S(=O)(=O)CC([C@H]1COC(C)(C)O1)N(O)C=O)CC2 (stereo partly drawn) [Example 14, N-{2-[(6,7-dimethoxy-3,4-dihydroisoquinolin-2(1H)-yl)sulfonyl]-1-[(4S)-2,2-dimethyl-1,3-dioxolan-4-yl]ethyl}-N-hydroxyformamide] | 5% | 68% | 50 ± 10%
6 | O=CN(O)C(CS(=O)(=O)N1CCc2ccccc2C1)c1cccnc1 (centres unmarked) [Example 10, N-[2-(3,4-dihydroisoquinolin-2(1H)-ylsulfonyl)-1-pyridin-3-ylethyl]-N-hydroxyformamide] |  | 93% | 
